Holding throughout (assay type): functional
Assay [1] deals with Onchocerca lienalis. In words: MMV: Percent motility assay at a compound concentration of 1.25e-5 M. Activity score legend: 3: Active, 2: Moderately active; 1: Inactive, 0: Toxic. Particulars: at 12.5 µM.
In assay [2] the test system is Onchocerca lienalis. The assay is described as follows: MMV: Percent motility assay at a compound concentration of 3.1e-6 M. Activity score legend: 3: Active, 2: Moderately active; 1: Inactive, 0: Toxic. Particulars: at 3.1 µM.
Assay [3] relates to Onchocerca lienalis. In words: MMV: Percent motility assay at a compound concentration of 1.9e-7 M. Activity score legend: 3: Active, 2: Moderately active; 1: Inactive, 0: Toxic. Conditions: at 0.19 µM.
Assay [4] deals with Onchocerca lienalis. In words: MMV: Percent motility assay at a compound concentration of 7.8e-7 M. Activity score legend: 3: Active, 2: Moderately active; 1: Inactive, 0: Toxic. Conditions: at 0.78 µM.

SMILES strings stand for the structures.

In the case of `COc1cccc(Nc2nc(NCCO)c3ccccc3n2)c1.Cl`, the Motility with Onchocerca lienalis [1], in the assay on Onchocerca lienalis [2], in the assay on Onchocerca lienalis [3] and in the assay on Onchocerca lienalis [4] was 100% in each case.
In the case of `Cn1c(=O)c2cc(C(=O)NCCCN3CCCCCC3)sc2c2ccccc21`, the Motility in the assay on Onchocerca lienalis [1], in the assay with Onchocerca lienalis [2], in the assay on Onchocerca lienalis [3] and with Onchocerca lienalis [4] was 100% in each case.
In the case of `COc1ccc(CCN2CCC(CN(C)Cc3cnn(-c4ccccc4)c3)CC2)cc1`, the Motility in the assay with Onchocerca lienalis [1], in the assay on Onchocerca lienalis [2], with Onchocerca lienalis [3] and with Onchocerca lienalis [4] was 100% throughout.
Take `O=C(NC(c1ccccc1)c1ccc2cccnc2c1O)c1ccccc1` (stereo not drawn): the Motility with Onchocerca lienalis [1] stood at 26.66%; with Onchocerca lienalis [2], 33.33%; in the assay on Onchocerca lienalis [3] it was 100%; in the assay on Onchocerca lienalis [4], 100%.
For the compound `CCOc1cc(Cl)c(C(C)NC(=O)c2cccc(OC)c2)cc1OCC` (stereo not drawn), the Motility in the assay on Onchocerca lienalis [1], with Onchocerca lienalis [2], in the assay on Onchocerca lienalis [3] and in the assay with Onchocerca lienalis [4] was 100% in each case.
With `Cc1ccc(Cl)cc1N1CCN(CCCNC(=O)C2CCN(c3nc4ccccc4[nH]3)CC2)CC1`, the Motility in the assay on Onchocerca lienalis [1], with Onchocerca lienalis [2], in the assay with Onchocerca lienalis [3] and in the assay with Onchocerca lienalis [4] was 100% each time.
For `CC(NCc1ccccc1)c1cc(Cl)ccc1O` (stereo not drawn), the Motility in the assay with Onchocerca lienalis [1], with Onchocerca lienalis [2], in the assay with Onchocerca lienalis [3] and in the assay with Onchocerca lienalis [4] was 100% throughout.
As to `O=C(Nc1ccc(CN2CCOCC2)cc1)c1ccc(-c2ccc(Br)cc2)o1`, the Motility in the assay with Onchocerca lienalis [1], with Onchocerca lienalis [2], in the assay on Onchocerca lienalis [3] and in the assay on Onchocerca lienalis [4] was 100% in each case.
Consider `CCCC(c1nnnn1C1CCCCC1)N1CCN(C(=O)c2ccco2)CC1.Cl` (stereo not drawn), for which the Motility in the assay on Onchocerca lienalis [1], in the assay with Onchocerca lienalis [2], with Onchocerca lienalis [3] and in the assay on Onchocerca lienalis [4] was 100% each time.
For `COc1cccc(-c2nn(C)c3sc(C(=O)NCCN4CCN(c5ccccc5F)CC4)cc23)c1`, the Motility in the assay on Onchocerca lienalis [1], with Onchocerca lienalis [2], in the assay on Onchocerca lienalis [3] and with Onchocerca lienalis [4] was 100% throughout.
As to `Cc1ccc(CN2CCC(C(=O)Nc3ccc(-c4cc5ccccc5[nH]4)cc3)CC2)o1`, the Motility in the assay on Onchocerca lienalis [1], in the assay on Onchocerca lienalis [2], with Onchocerca lienalis [3] and in the assay with Onchocerca lienalis [4] was 100% in each case.
`Cc1cc(C)c2nc(N3CCC(C(=O)NCCCN4CCC(N5CCCCC5)CC4)CC3)sc2c1`: the Motility in the assay with Onchocerca lienalis [1], with Onchocerca lienalis [2], with Onchocerca lienalis [3] and in the assay with Onchocerca lienalis [4] was 100% each time.
Regarding `CCN(CC)c1cc(C)c2cc(NC(=O)c3cccc(OC)c3)ccc2n1`, the Motility in the assay on Onchocerca lienalis [1], in the assay with Onchocerca lienalis [2], with Onchocerca lienalis [3] and with Onchocerca lienalis [4] was 100% throughout.
In the case of `CCOc1ccc(-c2nc(NC(=O)c3cccc(S(C)(=O)=O)c3)sc2C)cc1`, the Motility with Onchocerca lienalis [1], in the assay with Onchocerca lienalis [2], in the assay with Onchocerca lienalis [3] and in the assay with Onchocerca lienalis [4] was 100% in each case.
Regarding `CCCc1c(C)nc2ccccc2c1O`, the Motility with Onchocerca lienalis [1], with Onchocerca lienalis [2], with Onchocerca lienalis [3] and with Onchocerca lienalis [4] was 100% each time.
`CCOc1c(Cl)cc(CNC(C)C(O)c2ccccc2)cc1OC` (stereo not drawn): the Motility in the assay with Onchocerca lienalis [1], in the assay on Onchocerca lienalis [2], with Onchocerca lienalis [3] and in the assay on Onchocerca lienalis [4] was 100% each time.
Consider `CN1c2ccccc2N(C)C1c1ccc2c(c1)OCO2`, for which the Motility in the assay on Onchocerca lienalis [1], with Onchocerca lienalis [2], in the assay on Onchocerca lienalis [3] and in the assay with Onchocerca lienalis [4] was 100% each time.

For the origin of these results see ChEMBL document CHEMBL3137381, “MMV Box Onchocerca lienalis screening set”.
